The values that follow come from paper PMC5218480 (PLoS ONE, 2017).

This experiment relates to MV-4-11 cells. Nature of the experiment: Gene expression microarray analysis (Affymetrix PrimeView) and GSEA. It counts as cell-based, human. To be noted: ProbeSet 11758779_at; LIST B.

As for `Nc1ccc(-c2cccs2)cc1NC(=O)c1ccc2c(c1)cc(C1CC1)n2CCN1CCOCC1` [ACY-1035], the “RFU, TMEM50B” value came out at 85.32 RFU.
